# Experimental data as given in article PMC7616177, “From structure to clinic: Design of a muscarinic M1 receptor agonist with the potential to treat Alzheimer’s disease” (Cell, 2021).
# What was measured:
# M3-receptor = molecular target: T1, M3-receptor (Homo sapiens, UniProt P20309); assay: M3-receptor functional agonist assay; format: cell-based
# T1 construct: expressed in transfected cells
# Method: Functional assays were performed using the Alphascreen Surefire phopho-ERK1/2 assay. […] Once adhered, cells were serum starved overnight. Agonist stimulation was performed by the addition of […] agonist to the cells for a pre-optimized 5 min period (37°C). Media was removed and 50 μl of lysis buffer added. After 15 min a 4 μl sample was transferred to a 384-well plate and 7 μl of detection mixture added.
# Cynomolgus macaques = assay: Resting state qEEG in non-human primates; format: in vivo, Macaca fasicularis; settings: subcutaneous, 0.3 and 3 mg/kg
# Description: 6 adult male Cynomolgus macaques (Macaca fasicularis; 8-10 kg; 12-15 years old) were used for EEG studies. These animals had been used previously on other studies and were not considered to be pharmacologically naive. Subjects were housed in a temperature-controlled recording room and are maintained on a 12-hour light/dark cycle. The animals had access to water ad libitum and were fed a full daily regimen of food each day (Purina Animal Nutrition, Gray Summit, MO) enriched with fresh fruit and/or vegetables. All studies are conducted in compliance with USDA, NIH and SRI International IACUC guidelines. SRI International is an AAALAC accredited institution. […] Following the acclimation period, animals were dosed subcutaneously with vehicle or compound and EEG activity was recorded for 120 min. […]
# Data was analyzed using existing, customized MATLAB scripts with the EEGLAB toolbox. […] Mean absolute power, log transformed absolute power, and relative power was calculated based on each frequency band’s contribution to the total absolute power (i.e., % power). The mean normalized power was subsequently calculated by dividing each frequency band’s absolute power in the drug condition with the corresponding power in the control condition for each individual animal (i.e., use each animal as its own control) and then average across subjects. […]
# [1] = Non-human primate exposure; format: in vivo, non-human primates; settings: for Predicted brain exposure Cu,br: non-human primates
# aged beagle dogs = assay: Delayed non-matching to position (DNMP) in aged beagle dogs; format: in vivo, dog; settings: aged beagles
# Method: Animals were acclimatised in the testing facility for at least 3 months. During baseline days (days −12 to −8), 50 dogs underwent DNMP testing once daily using delays of 20 and 90 s equally dispersed over 12 trials per session.
# These 40 subjects were tested on the DNMP using delays of 5, 55 and 105 s equally dispersed over 18 trials per session over five once-daily sessions (days −6 to −2). Therefore, baseline testing was conducted for a total of 10 days.
# These dogs were then allocated into 5 groups, balanced for mean baseline performance accuracy at the longest delays (n = 8 per group). […] Daily treatment administration began on day 0, and dogs were tested once daily on the DNMP at the same delays employed at baseline for a minimum of 10 days. Each test consisted of two phases; in phase one, the dog is presented with an object over one of the three food wells. After the dog moves the object and obtains the food reward beneath, the tray is removed from the dog’s sight and the delay is initiated. The second phase occurs after the delay and consists of presenting the dog with two identical objects to that used in the first phase. One is in the same position as the first phase and the other covers a food reward in one of the two remaining food wells.
# locomotor activity = assay: Locomotor activity alone or with amphetamine; format: in vivo; settings: doses up to 100 mg/kg
# CA1 neurons = assay: In vivo electrophysiological recording of CA1 neurons in anaesthetised rats; set-up: species or system rat
# human M1 receptor = molecular target: T2, human M1 receptor (Homo sapiens, UniProt P11229); assay: M1-receptor functional agonist assays (pERK1/2 and calcium mobilisation) for hits and SAR; format: cell-based
# T2 construct: expressed in transfected cells
# T2 sequence (P11229 1-460): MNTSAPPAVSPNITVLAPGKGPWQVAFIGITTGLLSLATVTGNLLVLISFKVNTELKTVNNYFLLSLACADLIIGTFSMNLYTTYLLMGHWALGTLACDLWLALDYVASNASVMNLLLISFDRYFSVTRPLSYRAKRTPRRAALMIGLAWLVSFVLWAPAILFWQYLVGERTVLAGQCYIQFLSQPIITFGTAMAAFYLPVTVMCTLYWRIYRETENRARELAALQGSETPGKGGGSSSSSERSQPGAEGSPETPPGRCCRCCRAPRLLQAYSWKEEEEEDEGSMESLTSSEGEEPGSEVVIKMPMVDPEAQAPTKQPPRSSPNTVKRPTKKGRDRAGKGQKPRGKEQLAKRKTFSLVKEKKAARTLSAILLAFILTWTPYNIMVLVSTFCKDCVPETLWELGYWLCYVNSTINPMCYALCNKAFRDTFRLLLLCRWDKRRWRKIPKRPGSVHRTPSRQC
# T1 sequence (P20309 whole entry): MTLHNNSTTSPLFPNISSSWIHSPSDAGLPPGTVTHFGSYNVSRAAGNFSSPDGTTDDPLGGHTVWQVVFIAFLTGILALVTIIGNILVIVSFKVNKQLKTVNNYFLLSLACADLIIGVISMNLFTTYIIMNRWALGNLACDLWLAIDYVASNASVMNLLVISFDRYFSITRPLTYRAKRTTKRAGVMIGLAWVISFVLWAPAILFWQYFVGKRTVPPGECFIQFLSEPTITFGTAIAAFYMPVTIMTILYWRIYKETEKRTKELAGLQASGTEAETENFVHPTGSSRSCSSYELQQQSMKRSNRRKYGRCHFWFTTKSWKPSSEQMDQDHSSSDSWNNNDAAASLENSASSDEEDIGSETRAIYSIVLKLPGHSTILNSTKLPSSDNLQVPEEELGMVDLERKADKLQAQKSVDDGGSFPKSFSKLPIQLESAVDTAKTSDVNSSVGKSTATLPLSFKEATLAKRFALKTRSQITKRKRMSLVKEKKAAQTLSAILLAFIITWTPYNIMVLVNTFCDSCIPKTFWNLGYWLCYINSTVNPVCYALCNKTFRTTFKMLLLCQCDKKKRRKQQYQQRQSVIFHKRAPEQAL
compound,measurement,setting,value
"CCOC(=O)N1CCC[C@H](N2CCC(C(=O)NC3(C)CCC3)CC2)CC1 [HTL9936, ethyl (S)-4-(4-((1-methylcyclobutyl)carbamoyl)piperidin-1-yl)azepane-1-carboxylate]",EC50,M3-receptor,> 20000 nM
same,M3-receptor agonist activity,M3-receptor,no detectable agonism
same,qEEG power,Cynomolgus macaques,increased delta power
same,"Predicted brain exposure Cu,br",[1]; 0.3 mg/kg subcutaneous,20 nM
same,"Predicted brain exposure Cu,br",[1]; 3 mg/kg subcutaneous,198 nM
same,Oral bioavailability,[1]; primates,low oral bioavailability
same,Visual-spatial memory (DNMP performance),aged beagle dogs; 0.3 mg/kg and 1 mg/kg s.c.,Significant improvements in visual-spatial memory
same,Effect compared with donepezil,aged beagle dogs; 1 mg/kg s.c.,equivalent to that of donepezil
same,Adverse responses and locomotor activity,locomotor activity,no adverse responses nor had any effect on locomotor activity
same,In vivo firing rate of CA1 neurons vs vehicle,"CA1 neurons; 10 mg/kg i.v., rats",significant increase in the in vivo firing rate of CA1 neurons
same,In vivo neuronal firing rate,"CA1 neurons; adult rats, 1 and 10 mg/kg, reversed by scopolamine i.v.",concentration-dependent increase in neuronal firing rate
same,EC50,human M1 receptor,32 nM
